pIC50: −log10 of the molar value.
Experiments:
Plasmodium falciparum [1] = assay: Antimalarial activity against Plasmodium falciparum 3D7 infected in erythrocytes incubated for 48 hrs by [3H]hypoxanthine incorporation assay; format: functional, organism-based
Liver microsome = assay: Intrinsic clearance in human liver microsomes; format: ADME
[2] = Half life in mouse liver microsomes; format: ADME
[3] = Half life in human liver microsomes; format: ADME
Plasmodium falciparum [4] = assay: Antimalarial activity against Plasmodium falciparum 3D7 infected in erythrocytes incubated for 72 hrs by [3H]hypoxanthine incorporation assay; format: functional, organism-based
Acetylcholinesterase = Acetylcholinesterase (Homo sapiens, UniProt P22303); assay: Inhibition of human AChE
Chain of Acetylcholinesterase (P22303 whole entry): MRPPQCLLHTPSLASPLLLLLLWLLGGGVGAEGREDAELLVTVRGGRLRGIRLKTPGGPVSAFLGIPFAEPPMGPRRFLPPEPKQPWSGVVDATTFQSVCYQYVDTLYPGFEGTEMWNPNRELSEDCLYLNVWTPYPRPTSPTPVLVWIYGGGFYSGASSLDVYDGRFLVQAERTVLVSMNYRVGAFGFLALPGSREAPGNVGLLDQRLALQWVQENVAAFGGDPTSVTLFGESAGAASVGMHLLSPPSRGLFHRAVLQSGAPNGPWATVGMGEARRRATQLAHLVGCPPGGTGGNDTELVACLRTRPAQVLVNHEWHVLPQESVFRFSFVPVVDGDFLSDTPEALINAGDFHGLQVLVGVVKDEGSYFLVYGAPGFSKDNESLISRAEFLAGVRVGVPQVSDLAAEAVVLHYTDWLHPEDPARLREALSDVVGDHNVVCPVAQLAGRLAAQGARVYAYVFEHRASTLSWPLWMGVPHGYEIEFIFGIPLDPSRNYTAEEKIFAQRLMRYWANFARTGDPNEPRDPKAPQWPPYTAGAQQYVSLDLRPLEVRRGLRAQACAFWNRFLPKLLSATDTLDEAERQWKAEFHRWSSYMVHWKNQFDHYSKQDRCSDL

| SMILES | pIC50 (Plasmodium falciparum [1]) | further results |
| --- | --- | --- |
| COc1ccc(CN(C(=O)n2cnc(S(=O)(=O)[C@@H]3C[C@H]4CC[C@@H]3C4)n2)C2CC2)cc1 | 5.99 |  |
| CCN(C)C(=O)n1cnc(Sc2c(C)cc(C)cc2C)n1 | 5.72 |  |
| CC(C)N(C)C(=O)n1cnc(S(=O)(=O)C2CCCCC2)n1 | 7.55 |  |
| CSc1nc(-c2ccc(OC(F)(F)F)cc2)nn1C(=O)N(C)c1ccccc1 |  | pIC50 (Acetylcholinesterase): < 1.30 |
| CC(C)N(C(=O)n1cnc(S(=O)(=O)[C@@H]2C[C@H]3CC[C@@H]2C3)n1)C(C)C | < 5.30 | pIC50 (Plasmodium falciparum [4]): < 5.30 |
| CN(C(=O)n1cnc(S[C@@H]2C[C@H]3CC[C@@H]2C3)n1)c1ccccc1 | < 5.30 |  |
| Cc1nc(S(=O)(=O)[C@@H]2C[C@H]3CC[C@@H]2C3)nn1C(=O)N(C)C(C)C | < 5.40 |  |
| O=C(N1CCCC1)n1cnc(SCc2ccccc2)n1 | 5.84 |  |
| O=C(N1CCCC1)n1cnc(S(=O)(=O)[C@@H]2C[C@H]3CC[C@@H]2C3)n1 | 7.08 | Intrinsic clearance (Liver microsome): 1 mL/min/g; half-life [2]: < 5 min; half-life [3]: > 30 min; pIC50 (Plasmodium falciparum [4]): 7.43 |
| CCCN(C)C(=O)n1cnc(S(=O)(=O)[C@@H]2C[C@H]3CC[C@@H]2C3)n1 | 6.84 |  |
| CN(C)C(=O)n1cnc(S(=O)(=O)[C@@H]2C[C@H]3CC[C@@H]2C3)n1 | 7.33 |  |
| CCN(CC)C(=O)n1cnc(S[C@@H]2C[C@H]3CC[C@@H]2C3)n1 | 5.65 |  |
| O=C(N1CCc2ccccc2C1)n1cnc(S(=O)(=O)[C@@H]2C[C@H]3CC[C@@H]2C3)n1 | < 5.30 |  |

More lines, main results first:

| pIC50 (Plasmodium falciparum [1]) | SMILES | further results |
| --- | --- | --- |
| 6.59 | CN(Cc1ccccc1)C(=O)n1cnc(S(=O)(=O)[C@@H]2C[C@H]3CC[C@@H]2C3)n1 | Intrinsic clearance (Liver microsome): 1.5 mL/min/g; half-life [2]: 19.4 min; half-life [3]: > 30 min; pIC50 (Plasmodium falciparum [4]): 6.42 |
| 6.24 | CN(C)C(=O)n1cnc(S(=O)(=O)c2ccc(Cl)cc2)n1 |  |
| 7.72 | CC(C)N(C)C(=O)n1cnc(S(=O)(=O)c2ccc(Cl)cc2)n1 |  |
| 6.43 | CN(Cc1cccc(F)c1)C(=O)n1cnc(S(=O)(=O)[C@@H]2C[C@H]3CC[C@@H]2C3)n1 |  |
| 7.30 | CC(=O)c1ccc(CN(C)C(=O)n2cnc(S(=O)(=O)[C@@H]3C[C@H]4CC[C@@H]3C4)n2)cc1 |  |
| 5.46 | CN(Cc1cccc(C#N)c1)C(=O)n1cnc(S(=O)(=O)[C@@H]2C[C@H]3CC[C@@H]2C3)n1 |  |
| 5.57 | CN(C(=O)n1cnc(S(=O)(=O)[C@@H]2C[C@H]3CC[C@@H]2C3)n1)c1ccccc1 | pIC50 (Plasmodium falciparum [4]): 5.57 |
| 6.26 | CN(Cc1ccc(C(F)(F)F)cc1)C(=O)n1cnc(S(=O)(=O)[C@@H]2C[C@H]3CC[C@@H]2C3)n1 |  |
| 7.44 | COc1cccc(CN(C)C(=O)n2cnc(S(=O)(=O)[C@@H]3C[C@H]4CC[C@@H]3C4)n2)c1 |  |
| 6.74 | CN(Cc1ccccc1F)C(=O)n1cnc(S(=O)(=O)[C@@H]2C[C@H]3CC[C@@H]2C3)n1 |  |
| 6.22 | CN(Cc1ccc(Cl)cc1)C(=O)n1cnc(S(=O)(=O)[C@@H]2C[C@H]3CC[C@@H]2C3)n1 |  |
